Assay results from US7279317B2, “Modulation of COP9 signalsome isopeptidase activity” (California Institute of Technology, priority 2001, dated 2007).

Experiments:
CSN = target: T1, CSN (Schizosaccharomyces pombe, UniProt O94454); experiment: Nedd8 conjugate cleavage (deneddylation of Pcu1/Cul1) by CSN in S. pombe cell extracts, immunoblot; format: biochemical; conditions: 30 min at 30° C.; for inhibition of Nedd8 conjugate cleavage activity of CSN (Nedd8 deconjugation from Cul1): 1 mM chelator
T1 construct: addition (+) of wild type lysate (which contained active CSN); endogenous in cells; host or cells: wild type S. pombe cell lysate
Experimental: On the basis of this analysis, it was hypothesized that CSN represents the founding member of a novel class of metalloproteases. To test this hypothesis, the effect of a divalent cation chelator on the Nedd8 conjugate cleavage activity associated with CSN was examined. Mutant csn5Δ S. pombe cell extract that contained neddylated Pcu1 was incubated either alone (−) or following addition (+) of wild type lysate (which contained active CSN) supplemented with either methanol vehicle (MeOH), 1 mM 1,10-phenanthroline (O-PT), or 1 mM, 10 mM, or 20 mM EDTA.
Reactions were incubated 30 min at 30° C. and terminated by addition of SDS-PAGE sample buffer, fractionated by SDS-PAGE, transferred to nitrocellulose, and immunoblotted with antibodies directed against S. pombe Cul1. Filter-bound antibodies were decorated with goat-anti-rabbit antibody conjugated to horse radish peroxidase and visualized with ECL reagents (Lyapina et al., supra, 2001).
The status of Nedd8 conjugation to Cul1 was determined by the mobility of Cul1 on the SDS-polyacrylamide gel. Nedd8-conjugated Cul1 migrated more slowly than unmodified Cul.

26S proteasome [1] = conditions: prior work; cited from earlier work
26S proteasome [2] = target: T2, 26S proteasome (Saccharomyces cerevisiae, UniProt P25043+P30656+P38624+P43588); experiment: Deubiquitination and degradation of multiubiquitinated Sic1 by purified 26S proteasome, immunoblot; format: biochemical; conditions: 2.5 μM; in the presence of epoxomicin
T2 construct: made in house; host or cells: Saccharomyces cerevisiae

T1 sequence (O94454 whole entry): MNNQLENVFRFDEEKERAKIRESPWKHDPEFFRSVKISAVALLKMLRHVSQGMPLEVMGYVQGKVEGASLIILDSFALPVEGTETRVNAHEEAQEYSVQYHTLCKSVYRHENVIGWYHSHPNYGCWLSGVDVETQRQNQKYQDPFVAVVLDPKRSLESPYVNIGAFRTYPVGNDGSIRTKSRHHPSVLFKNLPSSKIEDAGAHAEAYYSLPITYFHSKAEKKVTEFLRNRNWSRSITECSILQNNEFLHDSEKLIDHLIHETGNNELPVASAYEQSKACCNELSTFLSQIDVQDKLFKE
T1 sequence (O94308 whole entry partner): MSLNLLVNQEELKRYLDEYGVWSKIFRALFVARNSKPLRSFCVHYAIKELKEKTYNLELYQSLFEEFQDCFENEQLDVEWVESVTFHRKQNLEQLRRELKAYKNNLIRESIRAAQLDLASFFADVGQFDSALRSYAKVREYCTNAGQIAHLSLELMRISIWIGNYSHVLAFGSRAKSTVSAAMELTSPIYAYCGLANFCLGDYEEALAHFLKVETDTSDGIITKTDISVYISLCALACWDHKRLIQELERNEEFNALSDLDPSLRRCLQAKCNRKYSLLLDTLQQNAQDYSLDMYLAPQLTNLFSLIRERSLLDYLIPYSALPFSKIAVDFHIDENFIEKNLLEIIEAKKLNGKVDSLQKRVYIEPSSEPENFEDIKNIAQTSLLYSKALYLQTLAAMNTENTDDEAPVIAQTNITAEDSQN
T1 sequence (Q9HFR0 whole entry partner): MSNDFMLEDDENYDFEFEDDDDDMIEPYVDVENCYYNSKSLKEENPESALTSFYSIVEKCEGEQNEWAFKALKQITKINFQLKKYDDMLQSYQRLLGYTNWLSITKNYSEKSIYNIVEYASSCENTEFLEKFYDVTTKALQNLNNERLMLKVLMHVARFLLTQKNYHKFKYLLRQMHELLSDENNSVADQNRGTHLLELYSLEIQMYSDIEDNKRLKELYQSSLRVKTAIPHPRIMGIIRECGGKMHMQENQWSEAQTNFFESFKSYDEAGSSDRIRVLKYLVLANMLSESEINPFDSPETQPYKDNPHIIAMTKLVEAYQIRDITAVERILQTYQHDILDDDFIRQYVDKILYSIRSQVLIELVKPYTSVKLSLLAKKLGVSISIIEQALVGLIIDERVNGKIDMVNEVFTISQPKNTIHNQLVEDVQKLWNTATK
T1 sequence (O13895 whole entry partner): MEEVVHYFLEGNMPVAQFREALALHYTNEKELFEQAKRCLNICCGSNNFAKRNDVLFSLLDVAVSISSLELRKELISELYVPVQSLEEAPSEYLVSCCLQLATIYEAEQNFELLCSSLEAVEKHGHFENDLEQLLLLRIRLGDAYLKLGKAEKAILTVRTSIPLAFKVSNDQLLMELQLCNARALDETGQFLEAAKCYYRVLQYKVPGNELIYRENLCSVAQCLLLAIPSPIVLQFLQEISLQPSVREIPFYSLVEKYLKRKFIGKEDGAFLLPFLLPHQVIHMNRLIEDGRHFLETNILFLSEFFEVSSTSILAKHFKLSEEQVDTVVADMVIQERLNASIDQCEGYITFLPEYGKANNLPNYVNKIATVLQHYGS
T1 sequence (Q8WZK4 whole entry partner): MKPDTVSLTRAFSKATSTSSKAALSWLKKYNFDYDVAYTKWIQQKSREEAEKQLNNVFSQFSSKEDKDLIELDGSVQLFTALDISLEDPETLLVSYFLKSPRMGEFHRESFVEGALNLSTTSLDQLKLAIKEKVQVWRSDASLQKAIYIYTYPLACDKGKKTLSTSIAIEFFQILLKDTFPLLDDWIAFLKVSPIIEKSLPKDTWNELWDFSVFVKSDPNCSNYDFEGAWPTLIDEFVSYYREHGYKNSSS
T1 sequence (Q9UUJ7 whole entry partner): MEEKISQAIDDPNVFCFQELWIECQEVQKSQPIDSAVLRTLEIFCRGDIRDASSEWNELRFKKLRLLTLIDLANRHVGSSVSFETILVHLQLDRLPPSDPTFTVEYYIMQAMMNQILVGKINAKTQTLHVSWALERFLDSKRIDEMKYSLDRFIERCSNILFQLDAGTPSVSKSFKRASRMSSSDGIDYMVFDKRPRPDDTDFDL

Compound | inhibition of Nedd8 conjugate cleavage activity of CSN (Nedd8 deconjugation from Cul1) (CSN) | inhibition of Nedd8 deconjugation from Cul1 by CSN (CSN; 10 mM) | inhibition of Nedd8 deconjugation from Cul1 by CSN (CSN; 20 mM) | sensitivity of 26S proteasome-associated isopeptidase activity (26S proteasome [1]) | sensitivity of Sic1 deubiquitination by 26S proteasome to the inhibitor (26S proteasome [2])
O=C(O)CN(CCN(CC(=O)O)CC(=O)O)CC(=O)O [EDTA] | No inhibition | less than 50% | almost complete inhibition | – | –
c1cnc2c(c1)ccc1cccnc12 [1,10-phenanthroline] | completely inhibited | – | – | sensitive | –
ubiquitin vinyl sulfone | – | – | – | – | not sensitive
